target: Cytochrome P450 2B4 (Oryctolagus cuniculus) (UniProt P00178); assay: Binding affinity to C-terminal His4-tagged CYP2B4 dH/H226Y mutant (rabbit) after 2 hrs by isothermal titration calorimetric analysis

Row | SMILES | Kd [nM]
1 | Clc1ccc(-n2ccnc2)cc1 | 300
2 | Clc1ccc(-c2cnc[nH]2)cc1 | 300
3 | c1ccc(-n2ccnc2)cc1 | 300
4 | c1ccc(COCCn2ccnc2)cc1 | 300
5 | c1ccc(Cn2ccnc2)cc1 [BENZYLIMIDAZOLE] | 300
